Consider 2 compounds from a compilation of properties of binary mixtures (doi:10.1016/j.jct.2019.106017).

Structures are written as SMILES.

This data set is described as follows: xn = mol fraction of the nth substance listed. To be noted: 99.7 kPa.

The viscosity is the resistance of a fluid to flow. Lower therefore signals easy flow. For the compound `CCCCCCCCn1cc[n+](C)c1.F[B-](F)(F)F` + CC1COC(=O)O1, the viscosity is 5.22 mPa·s (303.15 K, x2 = 0.7343); 2.84 mPa·s (303.15 K, x2 = 0.917); 26.1 mPa·s (313.15 K, x2 = 0.4086); 5.01 mPa·s (313.15 K, x2 = 0.7343); 2.61 mPa·s (313.15 K, x2 = 0.917); 18.1 mPa·s (323.15 K, x2 = 0.4086). Also, the viscosity reads like this: (323.15 K, x2 = 0.7343) 4.81 mPa·s; (323.15 K, x2 = 0.917) 2.36 mPa·s; (333.15 K, x2 = 0.4086) 12.9 mPa·s; (333.15 K, x2 = 0.7343) 4.62 mPa·s; (333.15 K, x2 = 0.917) 2.16 mPa·s.
Take `CC1COC(=O)O1` (centres undefined) + CCCCCCCCn1cc[n+](C)c1.F[B-](F)(F)F: the viscosity runs as follows: (303.15 K, x1 = 1) 2.21 mPa·s; (313.15 K, x1 = 1) 2 mPa·s; (333.15 K, x1 = 1) 1.6 mPa·s.
